Laboratory results reported in patent publication US9867795B2, “Nitrated lipids and methods of making and using thereof” (The UAB Research Foundation, priority 2004, dated 2018).
Entries after “also recorded” stand apart in the source; their conditions may differ.

Columns and labels:
[1] = biological target: T1, hPPARγ (Homo sapiens, UniProt P37231); assay: CV-1 PPRE×3 TK-Luciferase transient transfection assay; format: cell-based; conditions: GW9662 added 1 hr prior to nitrated fatty acid
T1 construct: For assessing full-length PPAR receptors, CV-1 cells were transiently co-transfected; expressed in transfected cells; host or cells: CV-1 cells
T1 sequence (P37231 1-505): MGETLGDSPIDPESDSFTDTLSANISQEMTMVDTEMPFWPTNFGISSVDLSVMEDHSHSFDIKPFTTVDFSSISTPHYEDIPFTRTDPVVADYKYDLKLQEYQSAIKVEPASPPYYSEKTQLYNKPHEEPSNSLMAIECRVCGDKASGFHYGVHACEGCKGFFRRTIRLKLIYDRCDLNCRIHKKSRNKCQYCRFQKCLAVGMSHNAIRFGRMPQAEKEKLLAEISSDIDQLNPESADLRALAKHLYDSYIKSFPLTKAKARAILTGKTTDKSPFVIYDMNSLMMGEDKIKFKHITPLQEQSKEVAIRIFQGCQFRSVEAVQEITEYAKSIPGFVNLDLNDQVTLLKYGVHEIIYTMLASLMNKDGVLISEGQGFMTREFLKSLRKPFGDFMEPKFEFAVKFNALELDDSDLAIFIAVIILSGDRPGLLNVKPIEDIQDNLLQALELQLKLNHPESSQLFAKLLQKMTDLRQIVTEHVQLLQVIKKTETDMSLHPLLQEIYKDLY
From the text: Cell Transient Transfection Assay. […] Then, cells were transiently co-transfected with a plasmid containing the luciferase gene under regulation by four Gal4 DNA binding elements (UASG×4 TK-Luciferase, a gift from Dr. Ronald M. Evans), in concert with plasmids containing the ligand binding domain for the different nuclear receptors fused to the Gal4 DNA binding domain. For assessing full-length PPAR receptors, CV-1 cells were transiently co-transfected with a plasmid containing the luciferase gene under the control of three tandem PPAR response elements (PPRE) (PPRE×3 TK-Luciferase) and hPPARγ, hPPARα or hPPARδ expression plasmids, respectively. In all cases, fluorescence protein (GFP) expression plasmid was co-transfected as the control for the transfection efficiency. Twenty-four hours after the transfection, cells were cultured for another 24 hours in Optium-MEM (Invitrogen, Carlsbad, Calif.). Then, cells were treated with different compounds as indicated in figures for 24 hours in Optium-MEM. Reporter luciferase assay kits from Promega (Madison, Wis.) were used to measure the luciferase activity according to the manufacturer's instructions with a luminometer (Victor II, Perkin-Elmer). Luciferase activity was normalized by GFP units. Each condition was performed at least in triplicates in each experiment.
PPAR transient transfection assay. […] Twelve hours before transfection, the media was removed and antibiotic-free media was applied. Cells were transiently co-transfected with a plasmid containing the luciferase gene under the control of three tandem PPAR response elements (PPRE) (PPRE×3 TK-Luciferase) and PPARγ, PPARα or PPARδ expression plasmids, respectively. In all cases, fluorescence protein (GFP) expression plasmid was co-transfected as the control for transfection efficiency. Twenty-four hours after transfection, cells the returned to OptiMEM (Invitrogen, Carlsbad, Calif.) for 24 hr and then treated as indicated for another 24 hr. Reporter luciferase assay kits from Promega (Madison, Wis.) were used to measure the luciferase activity according to the manufacturer's instructions with a luminometer (Victor II, Perkin-Elmer). Luciferase activity was normalized by GFP units. Each condition was performed in triplicate in each experiment (n>3).

[2] = system: 3T3-L1 adipocytes; assay: [^3H]-2-Deoxy-D-glucose uptake assay in differentiated 3T3-L1 adipocytes; format: cell-based; conditions: GW9662 added 1 h before nitrated lipids or Rosiglitazone
Procedure: [^3H]-2-Deoxy-D-glucose Uptake Assay in Differentiated 3T3-L1 Adipocyte. [^3H]-2-Deoxy-D-glucose uptake assay as previously described (19) 3T3-L1 preadipocytes were grown in 24-well tissue culture plates, 2-day postconfluent preadipocytes were treated by 10 μg/ml insulin (Sigma), 1 μM dexamethasone (Sigma), and 0.5 mM 3-isobutyl-1-methylxanthine (Sigma) in DMEM containing 10% FBS for two days, then cells were kept in 10 μg/ml insulin also in DMEM containing 10% FBS for 6 days (changed medium every three days). Eight days after induction of adipogenesis, test compounds in DMEM containing 10% FBS were added for an additional 2 days (changed medium every day) and PPARγ-specific antagonist GW9662 were pretreated 1 h before other additions. After two rinses with serum-free DMEM, cells were incubated for 3 h in serum-free DMEM and rinsed at room temperature three times with freshly prepared KRPH buffer (5 mM phosphate buffer, 20 mM HEPES, 1 mM MgSO4, 1 mM CaCl2, 136 mM NaCl, 4.7 mM KCl, pH 7.4). The buffer was replaced with 1 μCi/ml of [^3H]-2-deoxy-D-glucose in KRPH buffer for 10 min at room temperature. The treated cells were rinsed carefully three times with cold PBS, lysed overnight in 0.8N NaOH (0.4 ml/well), and neutralized with […] of 12N HCl. Lysate (360 μl) was added to 4 ml Scinti-Safe Plus TM 50% in a scintillation vial, and the vials were mixed and counted.
[^3H]-2-Deoxy-D-glucose uptake assay in differentiated 3T3-L1 adipocytes. [^3H]-2-deoxy-D-glucose uptake was analyzed as previously (23). […] Cells were then rinsed three times with cold PBS, lysed overnight in 0.8 N NaOH (0.4 ml/well), neutralized with 26.6 μl of 12 N HCl and 360 μl of lysate was added into 4 ml Scinti-Safe Plus™ 50% for radioactivity determination by liquid scintillation counting.

[3] = system: mouse RAW264.7 macrophages; assay: CD36 expression in macrophages (immunoblot, real-time PCR); conditions: GW9662 added 1 h prior to treatment

O=C(Nc1ccccc1)c1cc([N+](=O)[O-])ccc1Cl [GW9662, reference compound]
effect of GW9662 on nitrated fatty acid-mediated PPARγ activation [1]: inhibited in a dose-dependent manner; also recorded: partially inhibited; also recorded: partially yet significantly blocked | effect of GW9662 on induced glucose uptake [2]: partially inhibited; also recorded: significantly inhibited | effect of GW9662 on LNO2-induced CD36 expression [3]: partially inhibitable
